One assay concerns the target T1, hEP2/Gqs5 (Homo sapiens, UniProt P43116).
T1 construct: expressed in transfected cells; host or cells: HEK-293(EBNA) cells
Kind of assay: FLIPR calcium signal, HEK-293(EBNA) cells. In kind it is cell-based. To be noted: Table 1, second part; read-out: hEP2 flipr EC50. On the procedure: (§1) HEK-293(EBNA) cells, stably expressing one type or subtype of recombinant human prostaglandin receptors (prostaglandin receptors expressed: hDP/Gqs5; hEP1; hEP2/Gqs5; hEP3A/Gqi5; hEP4/Gqs5; hFP; hIP; hTP), were cultured in 100 mm culture dishes in high-glucose DMEM medium containing 10% fetal bovine serum, 2 mM 1-glutamine, 250 μg/ml geneticin (G418) and 200 μg/ml hygromycin B as selection markers, and 100 units/ml penicillin G, 100 μg/ml streptomycin and 0.25 μg/ml amphotericin B.
(§2) Cells were seeded at a density of 5×10^4 cells per well in Biocoat® Poly-D-lysine-coated black-wall, clear-bottom 96-well plates (Becton-Dickinson) and allowed to attach overnight in an incubator at 37° C. Cells were then washed two times with HBSS-HEPES buffer (Hanks Balanced Salt Solution without bicarbonate and phenol red, 20 mM HEPES, pH 7.4) using a Denley Cellwash plate washer (Labsystems). After 45 minutes of dye-loading in the dark, using the calcium-sensitive dye Fluo-4 AM at a final concentration of 2 μM, plates were washed four times with HBSS-HEPES buffer to remove excess dye leaving 100 μl in each well. Plates were re-equilibrated to 37° C. for a few minutes.
(§3) Cells were excited with an Argon laser at 488 nm, and emission was measured through a 510-570 nm bandwidth emission filter (FLIPR™, Molecular Devices, Sunnyvale, Calif.). Drug solution was added in a 50 μl volume to each well to give the desired final concentration. The peak increase in fluorescence intensity was recorded for each well. On each plate, four wells each served as negative (HBSS-HEPES buffer) and positive controls (standard agonists: BW245C (hDP); PGE2 (hEP1; hEP2/Gqs5; hEP3A/Gqi5; hEP4/Gqs5); PGF2. (hFP); carbacyclin (hIP); U-46619 (hTP), depending on receptor). The peak fluorescence change in each drug-containing well was then expressed relative to the controls.
(§4) Compounds were tested in a high-throughput (HTS) or concentration-response (CoRe) format. In the HTS format, forty-four compounds per plate were examined in duplicates at a concentration of 10^−5 M. To generate concentration-response curves, four compounds per plate were tested in duplicates in a concentration range between 10^−5 and 10^−11 M. The duplicate values were averaged. In either, HTS or CoRe format each compound was tested on at least 3 separate plates using cells from different passages to give an n≧3.

The next assay deals with T2, hIP (Homo sapiens, UniProt P43119).
T2 construct: expressed in transfected cells; host or cells: HEK-293(EBNA) cells
Put plainly: FLIPR calcium signal, HEK-293(EBNA) cells. In kind it is cell-based. To be noted: Table 1, second part; quantity not given, values match functional data (EC50) of first part; read-out: Other Receptors hIP. On the procedure:
as §1, §2, §3, §4

The next assay has as its target T3, hEP4/Gqs5 (Homo sapiens, UniProt P35408).
T3 construct: expressed in transfected cells; host or cells: HEK-293(EBNA) cells
Kind of assay: FLIPR calcium signal, HEK-293(EBNA) cells. In kind it is cell-based. To be noted: Table 1, second part; read-out: hEP4 flipr EC50. On the procedure:
as §1, §2, §3, §4

Assay [1] has as its target T4, hEP2 (Homo sapiens, UniProt P43116). Kind of assay: hEP2 cAMP functional assay. In kind it is cell-based. Particulars: Table 1, second part.
In assay [2] the target is T4, hEP2. Kind of assay: Competition binding, [3H]PGE2, HEK 293 cells stably expressing human EP2 receptors. Also on record: expressed in transfected cells; host or cells: HEK 293 cells (membranes or whole cells). Particulars: Table 1, second part; read-out: hEP2 Ki. As for the experimental part: Competition binding experiments were performed in a medium containing Hank's balanced salt solution, Hepes 20 mM, pH 7.3, membranes (˜60 μg protein) or 2×10^5 cells from HEK 293 cells stably expressing human EP2 receptors, [^3H]PGE2 (10 nM) and various concentrations of test compounds in a total volume of 300 μL. Reaction mixtures were incubated at 23° C. for 60 min, and were filtered over Whatman GF/B filters under vacuum. Filters were washed three times with 5 ml ice-cold buffer containing 50 mM Tris/HCl (pH 7.3). Non-specific binding was estimated in the presence of excess unlabeled PGE2 (10 μM). Binding data fitted to the binding model for a single class of binding sites, using nonlinear regression analysis. IC50 values thus obtained were converted to Ki using the equation of Ki=(IC50/(1+[L]/KD) where [L] represents PGE2 concentration (10 nM) and KD the dissociation constant for [^3H]PGE2 at human EP2 receptors (40 nM).
(§5) HEK-293 cells stably expressing the human or feline FP receptor, or EP1, EP2, or EP4 receptors were washed with TME buffer, scraped from the bottom of the flasks, and homogenized for 30 sec using a Brinkman PT 10/35 polytron. TME buffer was added to achieve a final 40 ml volume in the centrifuge tubes (the composition of TME is 100 mM TRIS base, 20 mM MgCl2, […]; 10N HCl is added to achieve a pH of 7.4).
(§6) The cell homogenate was centrifuged at 19000 r.p.m. for 20 min at 4° C. using a Beckman Ti-60 rotor. The resultant pellet was resuspended in TME buffer to give a final 1 mg/ml protein concentration, as determined by Biorad assay. Radioligand binding competition assays vs. [^3H—]17 phenyl PGF2. (5 nM) were performed in a 100 μl volume for 60 min. Binding reactions were started by adding plasma membrane fraction. The reaction was terminated by the addition of 4 ml ice-cold TRIS-HCl buffer and rapid filtration through glass fiber GF/B filters using a Brandel cell harvester. The filters were washed 3 times with ice-cold buffer and oven dried for one hour.
(§7) [^3H—] PGE2 (specific activity 180 Ci mmol) was used as the radioligand for EP receptors. [^3H] 17-phenyl PGF2α was employed for FP receptor binding studies. Binding studies employing EP1, EP2, EP4 and FP receptors were performed in duplicate in at least three separate experiments. A 200 μl assay volume was used. Incubations were for 60 min at 25° C. and were terminated by the addition of 4 ml of ice-cold 50 mM TRIS-HCl, followed by rapid filtration through Whatman GF/B filters and three additional 4 ml washes in a cell harvester (Brandel). Competition studies were performed using a final concentration of 5 nM [^3H]-PGE2, or 5 nM [^3H] 17-phenyl PGF2α and non-specific binding determined with 10^−5M of unlabeled PGE2, or 17-phenyl PGF2α, according to receptor subtype studied.

The target of a further assay is T5, hEP4 (Homo sapiens, UniProt P35408).
T5 construct: expressed in transfected cells; host or cells: HEK-293 cells (plasma membrane fraction)
Kind of assay: Radioligand binding, [3H]PGE2, HEK-293 cells stably expressing EP4 receptors. Particulars: Table 1, second part; read-out: hEP4 Ki. On the procedure:
as §5, §6
as §7, with “Binding studies employing EP1, EP2, EP4 and FP receptors were performed in duplicate in at least three separate experiments.” left out

For 1 compound, EC50 and Ki results are on record in patent publication US7635716B2, “Substituted cyclopentanes or cyclopentanones as therapeutic agents” (Allergan, Inc., priority 2005, dated 2009).

For orientation: Ki means a dissociation constant, usually derived from enzyme kinetics or from competition with a known ligand.

T4 sequence (P43116 whole entry): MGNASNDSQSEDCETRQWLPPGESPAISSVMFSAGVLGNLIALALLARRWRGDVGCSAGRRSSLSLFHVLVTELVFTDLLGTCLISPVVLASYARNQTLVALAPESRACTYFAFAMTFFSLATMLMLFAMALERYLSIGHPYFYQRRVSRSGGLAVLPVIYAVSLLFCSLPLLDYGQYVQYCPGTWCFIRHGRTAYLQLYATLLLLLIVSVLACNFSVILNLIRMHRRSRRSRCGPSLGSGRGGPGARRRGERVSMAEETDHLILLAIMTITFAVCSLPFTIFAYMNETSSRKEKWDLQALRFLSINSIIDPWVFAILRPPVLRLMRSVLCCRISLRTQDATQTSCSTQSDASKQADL
T2 sequence (P43119 whole entry): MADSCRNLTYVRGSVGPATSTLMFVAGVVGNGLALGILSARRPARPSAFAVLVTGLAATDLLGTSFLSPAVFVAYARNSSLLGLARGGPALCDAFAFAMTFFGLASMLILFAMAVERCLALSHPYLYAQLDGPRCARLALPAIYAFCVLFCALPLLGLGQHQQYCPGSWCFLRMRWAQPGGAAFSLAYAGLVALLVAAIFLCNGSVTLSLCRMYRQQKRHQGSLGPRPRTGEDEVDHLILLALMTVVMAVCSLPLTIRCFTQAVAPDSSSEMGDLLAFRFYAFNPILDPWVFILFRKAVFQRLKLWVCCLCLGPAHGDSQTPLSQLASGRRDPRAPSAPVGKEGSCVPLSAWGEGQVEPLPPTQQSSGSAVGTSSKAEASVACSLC
T1 sequence (P43116 whole entry): as the sequence (P43116 whole entry) above
T3 sequence (P35408 whole entry): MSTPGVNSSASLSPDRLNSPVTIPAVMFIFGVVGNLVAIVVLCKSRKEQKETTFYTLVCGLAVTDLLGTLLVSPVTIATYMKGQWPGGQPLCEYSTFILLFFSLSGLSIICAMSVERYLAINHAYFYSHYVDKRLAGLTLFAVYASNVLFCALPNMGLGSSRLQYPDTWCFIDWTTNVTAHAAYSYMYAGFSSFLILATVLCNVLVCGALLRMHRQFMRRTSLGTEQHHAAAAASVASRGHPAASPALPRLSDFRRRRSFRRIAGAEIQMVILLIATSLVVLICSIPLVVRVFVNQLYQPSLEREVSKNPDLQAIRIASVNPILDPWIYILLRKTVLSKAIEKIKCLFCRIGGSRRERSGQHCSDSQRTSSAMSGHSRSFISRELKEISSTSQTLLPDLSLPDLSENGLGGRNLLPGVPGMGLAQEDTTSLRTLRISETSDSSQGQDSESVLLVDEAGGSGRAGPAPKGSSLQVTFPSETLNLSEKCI
T5 sequence (P35408 whole entry): as above

For `O=Cc1cccc(OC[C@@H]2[C@@H](C/C=C\CCCC(=O)O)[C@H](Cl)C[C@H]2O)c1` [Example 48, (Z)-7-[(1R,2S,3R,5R)-5-Chloro-2-(3-formyl-phenoxymethyl)-3-hydroxy-cyclopentyl]-hept-5-enoic acid], the EC50 on hEP2/Gqs5 was 0.192 µM; at hIP, 2.69 µM; on hEP4/Gqs5, greater than 10 µM; on hEP2 [1], 0.041 µM. The results for the inhibition constant (Ki) at hEP2 [2] and on hEP4 were 0.291 µM and 14.7 µM, respectively.
